Ends that are not written are not given here.
Test system: humans
Assay: Safety, Tolerability and Pharmacokinetic Study in humans: blood histamine
Assay type: in vivo, human
Conditions: for Average histamine level of subjects with >10 nmol/L / Maximum histamine level: 3.75 mg/kg
Method: We carried out a Safety, Tolerability and Pharmacokinetic Study of Tat-NR2B9c in humans. Subjects were either normal, healthy, non-smoking males or post-menopausal or surgically sterile female subjects with a minimum age of 18 years. The subjects were either administered Tat-NR2B9c, Lot #: 124-134-001B, or were given placebo (Phosphate Buffered Saline), Lot #: 124-134-001A, administered as an intravenous infusion (10±1 minutes). Four subjects were dosed in each of Cohorts 1 to 3, and 10 subjects were dosed in each of Cohorts 4 to 8. All 62 subjects completed the study. Treatment periods for each cohort were as follows: Cohort 1: Sep. 14, 2006; Cohort 2: Sep. 26, 2006; Cohort 3: Oct. 6, 2006; Cohort 4: Oct. 20, 2006; Cohort 5: Nov. 6, 2006; Cohort 6: Dec. 4, 2006; Cohort 7: Dec. 17, 2006; Cohort 8: Feb. 25, 2007.
During the study period, 11 blood samples were collected for pharmacokinetic analysis from each subject at the following timepoints: 0.00 (pre-dose), 0.08 (5 minutes), 0.17 to 0.25 (10 to 15 minutes, precisely at the end of each individual drug infusion), 0.33 (20 minutes), 0.50, 0.75, 1.00, 2.00, 6.00, 12.00, and 24.00 hours post-dose. In addition, 8 blood samples were collected for histamine analysis from each subject at the following timepoints: 0.00 (pre-dose), and at 0.08 (5 minutes), 0.17 (10 minutes), 0.25, 0.50, 1.00, 2.00, and 24.00 hours post-dose.

[1] = 10 minutes after start of administration
[2] = 15 minutes after start of administration

YGRKKRRQRRRKLSSIESDV [Tat-NR2B9c]
39.8 nmol/L: Maximum histamine level [1]
24.3 nmol/L: Average histamine level of subjects with >10 nmol/L [1]
15.3 nmol/L: Average histamine level of subjects with >10 nmol/L [2]
1: Number of Subjects with Histamine levels >10 nmol/L (NA-1 0.375 mg/kg (n = 8), Screening)
20.3 nmol/L: Maximum histamine level [2]
0: Number of Subjects with Histamine levels >10 nmol/L (NA-1 0.02 mg/kg (n = 2), Day 1, 0.00 hr) | Number of Subjects with Histamine levels >10 nmol/L (NA-1 0.02 mg/kg (n = 2), Day 1, 0.08 hr) | Number of Subjects with Histamine levels >10 nmol/L (NA-1 0.02 mg/kg (n = 2), Day 1, 0.17 hr) | Number of Subjects with Histamine levels >10 nmol/L (NA-1 0.02 mg/kg (n = 2), Day 1, 0.25 hr) | Number of Subjects with Histamine levels >10 nmol/L (NA-1 0.02 mg/kg (n = 2), Day 1, 0.50 hr) | Number of Subjects with Histamine levels >10 nmol/L (NA-1 0.02 mg/kg (n = 2), Day 1, 1.00 hr) | Number of Subjects with Histamine levels >10 nmol/L (NA-1 0.02 mg/kg (n = 2), Day 1, 2.00 hr) | Number of Subjects with Histamine levels >10 nmol/L (NA-1 0.02 mg/kg (n = 2), Day 1, 24.00 hr) | Number of Subjects with Histamine levels >10 nmol/L (NA-1 0.02 mg/kg (n = 2), Day 7) | Number of Subjects with Histamine levels >10 nmol/L (NA-1 0.02 mg/kg (n = 2), Day 14) | Number of Subjects with Histamine levels >10 nmol/L (NA-1 0.02 mg/kg (n = 2), Day 28 End-of-study) | Number of Subjects with Histamine levels >10 nmol/L (NA-1 0.02 mg/kg (n = 2), Screening) | Number of Subjects with Histamine levels >10 nmol/L (NA-1 0.08 mg/kg (n = 2), Day 1, 0.00 hr) | Number of Subjects with Histamine levels >10 nmol/L (NA-1 0.08 mg/kg (n = 2), Day 1, 0.08 hr) | Number of Subjects with Histamine levels >10 nmol/L (NA-1 0.08 mg/kg (n = 2), Day 1, 0.17 hr) | Number of Subjects with Histamine levels >10 nmol/L (NA-1 0.08 mg/kg (n = 2), Day 1, 0.25 hr) | Number of Subjects with Histamine levels >10 nmol/L (NA-1 0.08 mg/kg (n = 2), Day 1, 0.50 hr) | Number of Subjects with Histamine levels >10 nmol/L (NA-1 0.08 mg/kg (n = 2), Day 1, 1.00 hr) | Number of Subjects with Histamine levels >10 nmol/L (NA-1 0.08 mg/kg (n = 2), Day 1, 2.00 hr) | Number of Subjects with Histamine levels >10 nmol/L (NA-1 0.08 mg/kg (n = 2), Day 1, 24.00 hr) | Number of Subjects with Histamine levels >10 nmol/L (NA-1 0.08 mg/kg (n = 2), Day 7) | Number of Subjects with Histamine levels >10 nmol/L (NA-1 0.08 mg/kg (n = 2), Day 14) | Number of Subjects with Histamine levels >10 nmol/L (NA-1 0.08 mg/kg (n = 2), Day 28 End-of-study) | Number of Subjects with Histamine levels >10 nmol/L (NA-1 0.08 mg/kg (n = 2), Screening) | Number of Subjects with Histamine levels >10 nmol/L (NA-1 0.20 mg/kg (n = 2), Day 1, 0.00 hr) | Number of Subjects with Histamine levels >10 nmol/L (NA-1 0.20 mg/kg (n = 2), Day 1, 0.08 hr) | Number of Subjects with Histamine levels >10 nmol/L (NA-1 0.20 mg/kg (n = 2), Day 1, 0.17 hr) | Number of Subjects with Histamine levels >10 nmol/L (NA-1 0.20 mg/kg (n = 2), Day 1, 0.25 hr) | Number of Subjects with Histamine levels >10 nmol/L (NA-1 0.20 mg/kg (n = 2), Day 1, 0.50 hr) | Number of Subjects with Histamine levels >10 nmol/L (NA-1 0.20 mg/kg (n = 2), Day 1, 1.00 hr) | Number of Subjects with Histamine levels >10 nmol/L (NA-1 0.20 mg/kg (n = 2), Day 1, 2.00 hr) | Number of Subjects with Histamine levels >10 nmol/L (NA-1 0.20 mg/kg (n = 2), Day 1, 24.00 hr) | Number of Subjects with Histamine levels >10 nmol/L (NA-1 0.20 mg/kg (n = 2), Day 7) | Number of Subjects with Histamine levels >10 nmol/L (NA-1 0.20 mg/kg (n = 2), Day 14) | Number of Subjects with Histamine levels >10 nmol/L (NA-1 0.20 mg/kg (n = 2), Day 28 End-of-study) | Number of Subjects with Histamine levels >10 nmol/L (NA-1 0.20 mg/kg (n = 2), Screening) | Number of Subjects with Histamine levels >10 nmol/L (NA-1 0.375 mg/kg (n = 8), Day 1, 0.00 hr) | Number of Subjects with Histamine levels >10 nmol/L (NA-1 0.375 mg/kg (n = 8), Day 1, 0.08 hr) | Number of Subjects with Histamine levels >10 nmol/L (NA-1 0.375 mg/kg (n = 8), Day 1, 0.17 hr) | Number of Subjects with Histamine levels >10 nmol/L (NA-1 0.375 mg/kg (n = 8), Day 1, 0.25 hr) | Number of Subjects with Histamine levels >10 nmol/L (NA-1 0.375 mg/kg (n = 8), Day 1, 0.50 hr) | Number of Subjects with Histamine levels >10 nmol/L (NA-1 0.375 mg/kg (n = 8), Day 1, 1.00 hr) | Number of Subjects with Histamine levels >10 nmol/L (NA-1 0.375 mg/kg (n = 8), Day 1, 2.00 hr) | Number of Subjects with Histamine levels >10 nmol/L (NA-1 0.375 mg/kg (n = 8), Day 1, 24.00 hr) | Number of Subjects with Histamine levels >10 nmol/L (NA-1 0.375 mg/kg (n = 8), Day 7) | Number of Subjects with Histamine levels >10 nmol/L (NA-1 0.375 mg/kg (n = 8), Day 14) | Number of Subjects with Histamine levels >10 nmol/L (NA-1 0.375 mg/kg (n = 8), Day 28 End-of-study) | Number of Subjects with Histamine levels >10 nmol/L (NA-1 0.75 mg/kg (n = 8), Day 1, 0.00 hr)

Source: patent publication US10046060B2, “Co-administration of an agent linked to an internalization peptide with an anti-inflammatory” (NoNO Inc., priority 2007, dated 2018)
